Source: the supplement of paper PMC10307832

Experiments:
Test in all cases: relative viability (nuclei count vs DMSO), 5 days (fraction); higher = more cells survive
[1] = test system: ABC-1
In short: (§1)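 Medians of duplicate plates are given as relative viability. That measure is the nuclei count in treated wells divided by the count in vehicle wells. Counts were taken on 4× images of lung cancer cell lines in 1536-well plates, 5 days after pin-tool dosing the day after seeding with one drug alone or a fixed anchor-drug dose plus five library-drug doses (not always all listed) in √10 steps.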

[2] = test system: CAL-12T
In short: as §1

[3] = test system: COR-L 105
In short: as §1

[4] = test system: ChaGo-K-1
In short: as §1

[5] = test system: EMC-BAC-2
In short: as §1

[6] = test system: EPLC-272H
In short: as §1

[7] = test system: HCC-15
In short: as §1

[8] = test system: HCC-78
In short: as §1

[9] = test system: HOP-62
In short: as §1

[10] = test system: LXF-289
In short: as §1

[11] = test system: NCI-H1666
In short: as §1

[12] = test system: NCI-H1755
In short: as §1

[13] = test system: NCI-H1915
In short: as §1

[14] = test system: NCI-H1975
In short: as §1

[15] = test system: NCI-H2023
In short: as §1

[16] = test system: NCI-H2085
In short: as §1

[17] = test system: NCI-H2126
In short: as §1

[18] = test system: NCI-H3122
In short: as §1

[19] = test system: NCI-H322M
In short: as §1

[20] = test system: NCI-H358
In short: as §1

[21] = test system: NCI-H441
In short: as §1

[22] = test system: UMC-11
In short: as §1

`COc1nc(C)cnc1NS(=O)(=O)c1cccnc1-c1ccc(-c2nnco2)cc1` [Zibotentan] + COc1cccc2cc(-c3nc([C@H]4CC[C@H](C(=O)O)CC4)n4ncnc(N)c34)[nH]c12 [OSI-027] (partner 0.5 µM) was tested, and the relative viability ([1]; first compound 0.08 µM) was 0.608, the relative viability ([1]; first compound 0.253 µM) was 0.542 and the relative viability ([1]; first compound 0.8 µM) was 0.53. For the same compound, the relative viability ([1]; first compound 2.53 µM) was 0.527, the relative viability ([2]; first compound 0.08 µM) was 0.559 and the relative viability ([2]; first compound 0.253 µM) was 0.551. The relative viability ([2]; first compound 0.8 µM) was 0.614, the relative viability ([2]; first compound 2.53 µM) was 0.629 and the relative viability ([3]; first compound 0.08 µM) was 0.822. For the same compound, the relative viability ([3]; first compound 0.253 µM) was 0.618, the relative viability ([3]; first compound 0.8 µM) was 0.941 and the relative viability ([3]; first compound 2.53 µM) was 0.909. It also gave a relative viability ([4]; first compound 0.08 µM) of 0.547, a relative viability ([4]; first compound 0.253 µM) of 0.579 and a relative viability ([4]; first compound 0.8 µM) of 0.583. The relative viability ([4]; first compound 2.53 µM) was 0.604, the relative viability ([5]; first compound 0.08 µM) was 0.376 and the relative viability ([5]; first compound 0.8 µM) was 0.381. For the same compound, the relative viability ([5]; first compound 2.53 µM) was 0.414, the relative viability ([6]; first compound 0.08 µM) was 0.328 and the relative viability ([6]; first compound 0.253 µM) was 0.287. The relative viability ([6]; first compound 0.8 µM) was 0.269, the relative viability ([6]; first compound 2.53 µM) was 0.301 and the relative viability ([7]; first compound 0.08 µM) was 0.644. For the same compound, the relative viability ([7]; first compound 0.8 µM) was 0.759, the relative viability ([7]; first compound 2.53 µM) was 0.781 and the relative viability ([8]; first compound 0.08 µM) was 0.358. For the same compound, the relative viability ([8]; first compound 0.253 µM) was 0.332, the relative viability ([8]; first compound 0.8 µM) was 0.356 and the relative viability ([8]; first compound 2.53 µM) was 0.323. It also gave a relative viability ([9]; first compound 0.08 µM) of 0.903, a relative viability ([9]; first compound 0.253 µM) of 0.871 and a relative viability ([9]; first compound 0.8 µM) of 0.878. The relative viability ([9]; first compound 2.53 µM) was 0.931, the relative viability ([10]; first compound 0.08 µM) was 0.82 and the relative viability ([10]; first compound 0.253 µM) was 0.794. For the same compound, the relative viability ([10]; first compound 0.8 µM) was 0.871, the relative viability ([10]; first compound 2.53 µM) was 0.839 and the relative viability ([11]; first compound 0.08 µM) was 0.929. It also gave a relative viability ([11]; first compound 0.253 µM) of 0.751, a relative viability ([11]; first compound 0.8 µM) of 0.814 and a relative viability ([11]; first compound 2.53 µM) of 0.877. For the same compound, the relative viability ([12]; first compound 0.08 µM) was 0.716, the relative viability ([12]; first compound 0.253 µM) was 0.685 and the relative viability ([12]; first compound 0.8 µM) was 0.715. For the same compound, the relative viability ([12]; first compound 2.53 µM) was 0.793, the relative viability ([13]; first compound 0.08 µM) was 0.637 and the relative viability ([13]; first compound 0.253 µM) was 0.627. For the same compound, the relative viability ([13]; first compound 0.8 µM) was 0.603, the relative viability ([13]; first compound 2.53 µM) was 0.649 and the relative viability ([14]; first compound 0.08 µM) was 0.783. It also gave a relative viability ([14]; first compound 0.253 µM) of 0.696, a relative viability ([14]; first compound 0.8 µM) of 0.566 and a relative viability ([14]; first compound 2.53 µM) of 0.661. It also gave a relative viability ([15]; first compound 0.08 µM) of 0.475, a relative viability ([15]; first compound 0.253 µM) of 0.228 and a relative viability ([15]; first compound 0.8 µM) of 0.371. It also gave a relative viability ([15]; first compound 2.53 µM) of 0.476, a relative viability ([16]; first compound 0.08 µM) of 0.78 and a relative viability ([16]; first compound 0.253 µM) of 0.727. The relative viability ([16]; first compound 0.8 µM) was 0.442, the relative viability ([16]; first compound 2.53 µM) was 0.832 and the relative viability ([17]; first compound 0.08 µM) was 0.769. For the same compound, the relative viability ([17]; first compound 0.253 µM) was 0.718, the relative viability ([17]; first compound 0.8 µM) was 0.609 and the relative viability ([17]; first compound 2.53 µM) was 0.684. The relative viability ([18]; first compound 0.08 µM) was 1.01, the relative viability ([18]; first compound 0.8 µM) was 0.915 and the relative viability ([18]; first compound 2.53 µM) was 0.957. The relative viability ([19]; first compound 0.08 µM) was 0.578, the relative viability ([19]; first compound 0.253 µM) was 0.508 and the relative viability ([19]; first compound 0.8 µM) was 0.657. For the same compound, the relative viability ([19]; first compound 2.53 µM) was 0.6, the relative viability ([20]; first compound 0.08 µM) was 0.833 and the relative viability ([20]; first compound 0.253 µM) was 0.531. The relative viability ([20]; first compound 0.8 µM) was 0.725, the relative viability ([20]; first compound 2.53 µM) was 0.824 and the relative viability ([21]; first compound 0.08 µM) was 0.823. For the same compound, the relative viability ([21]; first compound 0.253 µM) was 0.404, the relative viability ([21]; first compound 0.8 µM) was 0.818 and the relative viability ([21]; first compound 2.53 µM) was 0.752. It also gave a relative viability ([22]; first compound 0.08 µM) of 0.562, a relative viability ([22]; first compound 0.253 µM) of 0.462 and a relative viability ([22]; first compound 0.8 µM) of 0.467. The relative viability ([22]; first compound 2.53 µM) was 0.514.

`COc1nc(C)cnc1NS(=O)(=O)c1cccnc1-c1ccc(-c2nnco2)cc1` [Zibotentan] + CS(=O)(=O)N1CCN(Cc2cc3nc(-c4cccc5[nH]ncc45)nc(N4CCOCC4)c3s2)CC1 [Pictilisib] (partner 1 µM) gave a relative viability ([1]; first compound 0.08 µM) of 0.686, a relative viability ([1]; first compound 0.253 µM) of 0.623 and a relative viability ([1]; first compound 0.8 µM) of 0.772. It also gave a relative viability ([1]; first compound 2.53 µM) of 0.646, a relative viability ([2]; first compound 0.08 µM) of 0.395 and a relative viability ([2]; first compound 0.8 µM) of 0.453. It also gave a relative viability ([2]; first compound 2.53 µM) of 0.513, a relative viability ([3]; first compound 0.08 µM) of 0.523 and a relative viability ([3]; first compound 0.253 µM) of 0.357. The relative viability ([3]; first compound 0.8 µM) was 0.477, the relative viability ([3]; first compound 2.53 µM) was 0.502 and the relative viability ([4]; first compound 0.08 µM) was 0.653. The relative viability ([4]; first compound 0.8 µM) was 0.426, the relative viability ([4]; first compound 2.53 µM) was 0.691 and the relative viability ([5]; first compound 0.08 µM) was 0.568. For the same compound, the relative viability ([5]; first compound 0.253 µM) was 0.529, the relative viability ([5]; first compound 0.8 µM) was 0.56 and the relative viability ([5]; first compound 2.53 µM) was 0.56. It also gave a relative viability ([6]; first compound 0.08 µM) of 0.363, a relative viability ([6]; first compound 0.253 µM) of 0.289 and a relative viability ([6]; first compound 0.8 µM) of 0.239. It also gave a relative viability ([6]; first compound 2.53 µM) of 0.297, a relative viability ([7]; first compound 0.08 µM) of 0.763 and a relative viability ([7]; first compound 0.253 µM) of 0.667. For the same compound, the relative viability ([7]; first compound 0.8 µM) was 0.687, the relative viability ([7]; first compound 2.53 µM) was 0.817 and the relative viability ([8]; first compound 0.08 µM) was 0.0937. The relative viability ([8]; first compound 0.253 µM) was 0.23, the relative viability ([8]; first compound 0.8 µM) was 0.198 and the relative viability ([8]; first compound 2.53 µM) was 0.195. It also gave a relative viability ([9]; first compound 0.08 µM) of 0.687, a relative viability ([9]; first compound 0.253 µM) of 0.769 and a relative viability ([9]; first compound 0.8 µM) of 0.752. It also gave a relative viability ([9]; first compound 2.53 µM) of 0.851, a relative viability ([10]; first compound 0.08 µM) of 0.774 and a relative viability ([10]; first compound 0.253 µM) of 0.739. It also gave a relative viability ([10]; first compound 0.8 µM) of 0.814, a relative viability ([10]; first compound 2.53 µM) of 0.783 and a relative viability ([11]; first compound 0.08 µM) of 0.553. For the same compound, the relative viability ([11]; first compound 0.253 µM) was 0.361, the relative viability ([11]; first compound 0.8 µM) was 0.467 and the relative viability ([11]; first compound 2.53 µM) was 0.429. For the same compound, the relative viability ([12]; first compound 0.08 µM) was 0.444, the relative viability ([12]; first compound 0.253 µM) was 0.461 and the relative viability ([12]; first compound 0.8 µM) was 0.382. It also gave a relative viability ([12]; first compound 2.53 µM) of 0.47, a relative viability ([13]; first compound 0.08 µM) of 1.01 and a relative viability ([13]; first compound 0.253 µM) of 0.955. It also gave a relative viability ([13]; first compound 0.8 µM) of 0.873, a relative viability ([13]; first compound 2.53 µM) of 0.96 and a relative viability ([14]; first compound 0.08 µM) of 0.311. It also gave a relative viability ([14]; first compound 0.253 µM) of 0.262, a relative viability ([14]; first compound 0.8 µM) of 0.293 and a relative viability ([14]; first compound 2.53 µM) of 0.299. For the same compound, the relative viability ([15]; first compound 0.08 µM) was 0.279, the relative viability ([15]; first compound 0.253 µM) was 0.127 and the relative viability ([15]; first compound 0.8 µM) was 0.226. The relative viability ([15]; first compound 2.53 µM) was 0.26, the relative viability ([16]; first compound 0.08 µM) was 0.477 and the relative viability ([16]; first compound 0.253 µM) was 0.495. For the same compound, the relative viability ([16]; first compound 0.8 µM) was 0.477, the relative viability ([16]; first compound 2.53 µM) was 0.517 and the relative viability ([17]; first compound 0.08 µM) was 0.525. The relative viability ([17]; first compound 0.253 µM) was 0.525, the relative viability ([17]; first compound 0.8 µM) was 0.465 and the relative viability ([17]; first compound 2.53 µM) was 0.474. It also gave a relative viability ([18]; first compound 0.08 µM) of 0.568, a relative viability ([18]; first compound 0.253 µM) of 0.519 and a relative viability ([18]; first compound 0.8 µM) of 0.576. It also gave a relative viability ([18]; first compound 2.53 µM) of 0.539, a relative viability ([19]; first compound 0.08 µM) of 0.521 and a relative viability ([19]; first compound 0.253 µM) of 0.559. For the same compound, the relative viability ([19]; first compound 0.8 µM) was 0.533, the relative viability ([19]; first compound 2.53 µM) was 0.506 and the relative viability ([20]; first compound 0.08 µM) was 0.318. It also gave a relative viability ([20]; first compound 0.8 µM) of 0.395, a relative viability ([20]; first compound 2.53 µM) of 0.378 and a relative viability ([21]; first compound 0.08 µM) of 0.518. The relative viability ([21]; first compound 0.253 µM) was 0.39, the relative viability ([21]; first compound 0.8 µM) was 0.545 and the relative viability ([21]; first compound 2.53 µM) was 0.632. For the same compound, the relative viability ([22]; first compound 0.08 µM) was 0.746, the relative viability ([22]; first compound 0.253 µM) was 0.809 and the relative viability ([22]; first compound 0.8 µM) was 0.837. The relative viability ([22]; first compound 2.53 µM) was 0.777.
